pEC50, pIC50: −log10 of the molar value. Like-named read-outs stand apart in the source and are kept apart here. Each block holds one molecule with its values, some of them ahead of it. Where a SMILES comes first, the peptide text is derived from it. [ ]: non-standard residue; d: D form. The star is where a group is joined. hLys(Nζ-OH,Nζ-For) = N[C@@H](CCCCCN(O)C=O)C(=O)O; Asu = N[C@@H](CCCCCC(=O)O)C(=O)O; NH(2-NH2-phenyl) = Nc1ccccc1N*; dPip = O=C(O)[C@H]1CCCCN1; X2 = Nc1ccccc1O*; X3 = Sc1ccccc1N*
Key:
[1] = from H-dTyr(Me)-Ile-Pip-Lys(For,OBzl)-OH?; amide bond; 12-membered ring; HATU/DIEA; DMF; 0.4 mM; 25.0 °C
mouse HDAC6 = molecular target: T1, mouse HDAC6 (Mus musculus, UniProt Q9Z2V5); assay: HDAC inhibitory activity in vitro (coumarin-labeled acetylated histone peptide), HDAC6; assay type: biochemical
T1 construct: HA; made in house; host or cells: 293T cells, transient transfection; anti-HA immunoprecipitation and HA peptide elution
T1 sequence (Q9Z2V5 1-1149): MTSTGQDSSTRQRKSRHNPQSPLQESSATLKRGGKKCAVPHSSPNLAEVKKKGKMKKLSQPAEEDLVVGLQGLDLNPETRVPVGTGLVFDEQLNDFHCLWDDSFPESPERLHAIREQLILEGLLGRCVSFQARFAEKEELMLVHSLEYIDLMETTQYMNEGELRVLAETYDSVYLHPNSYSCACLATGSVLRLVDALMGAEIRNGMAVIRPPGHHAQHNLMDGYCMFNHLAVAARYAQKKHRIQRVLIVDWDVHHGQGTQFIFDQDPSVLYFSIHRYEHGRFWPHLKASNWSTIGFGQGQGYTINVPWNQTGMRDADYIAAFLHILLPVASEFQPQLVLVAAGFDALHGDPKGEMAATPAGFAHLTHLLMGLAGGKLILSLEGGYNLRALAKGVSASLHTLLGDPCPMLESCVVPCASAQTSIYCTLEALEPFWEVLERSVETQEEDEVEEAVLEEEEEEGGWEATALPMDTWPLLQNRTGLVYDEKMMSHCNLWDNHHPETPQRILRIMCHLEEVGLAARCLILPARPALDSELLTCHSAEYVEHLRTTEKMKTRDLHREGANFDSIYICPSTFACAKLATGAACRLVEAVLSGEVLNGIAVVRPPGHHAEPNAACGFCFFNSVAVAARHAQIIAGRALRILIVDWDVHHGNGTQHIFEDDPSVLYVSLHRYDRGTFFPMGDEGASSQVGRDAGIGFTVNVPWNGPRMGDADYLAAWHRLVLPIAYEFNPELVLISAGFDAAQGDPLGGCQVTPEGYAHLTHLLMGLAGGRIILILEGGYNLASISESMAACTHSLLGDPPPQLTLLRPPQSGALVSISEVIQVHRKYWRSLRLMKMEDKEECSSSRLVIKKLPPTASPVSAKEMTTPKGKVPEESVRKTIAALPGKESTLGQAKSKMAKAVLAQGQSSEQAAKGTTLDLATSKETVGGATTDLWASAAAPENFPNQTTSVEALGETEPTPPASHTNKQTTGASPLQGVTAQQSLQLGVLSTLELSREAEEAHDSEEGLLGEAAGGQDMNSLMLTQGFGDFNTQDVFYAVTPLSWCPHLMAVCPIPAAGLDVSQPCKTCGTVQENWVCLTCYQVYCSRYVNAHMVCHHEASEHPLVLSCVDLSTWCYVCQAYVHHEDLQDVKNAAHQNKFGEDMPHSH

human HDAC1 = molecular target: T2, human HDAC1 (Homo sapiens, UniProt Q13547); assay: HDAC inhibitory activity in vitro (coumarin-labeled acetylated histone peptide), HDAC1; assay type: biochemical
T2 construct: FLAG; made in house; host or cells: 293T cells, transient transfection; anti-FLAG immunoprecipitation and FLAG peptide elution

human HDAC4 = molecular target: T3, human HDAC4 (Homo sapiens, UniProt P56524); assay: HDAC inhibitory activity in vitro (coumarin-labeled acetylated histone peptide), HDAC4; assay type: biochemical
T3 construct: FLAG; made in house; host or cells: 293T cells, transient transfection; anti-FLAG immunoprecipitation and FLAG peptide elution

[2] = test system: human wild-type p21 promoter; assay: p21 promoter-inducing activity (luciferase) in MFLL-9 cells; assay type: cell-based
Procedure: The HDAC inhibitory activity in vivo was measured using p21 promoter-inducing activity as an index, as shown below. The MFLL-9 cells employed for the experiments stably maintained fusion genes of human wild-type p21 promoter and luciferase (Dr. B. Vogelstaein). Using phenol red-free DMEM medium comprising 10% FBS, cultivation was carried out in a steam-saturated incubator at 37° C. with 5% carbon dioxide. The MFLL-9 cells were plated at a density of 85,000 cells/well on a 96-well microtiter plate, each in 99 μl of the above-mentioned medium. These were then cultivated for six hours. One μl of test compound solution was added to each well, which was then cultured for another 18 hours.
The intensity of luminescence caused by the product of the enzyme reaction for intracellular luciferase expression was measured using Luc Lite (Packard BioScience Company).
HDAC inhibitory activity in an in vivo system was measured using p21 promoter induction as index. The experimental method followed that of Example 11.

[3] = Table 1, 37° C., 30 minutes, read-out: IC50 (μM) HDAC6
[4] = Table 1, 37° C., 30 minutes, read-out: IC50 (μM) HDAC1
[5] = Table 1, 37° C., 30 minutes, read-out: IC50 (μM) HDAC4
[6] = Table 3, method of Example 11, 50% of the maximum activity observed in TSA
[7] = Table 3, method of Example 11, read-out: IC50(μM) HDAC6
[8] = Table 3, method of Example 11, read-out: IC50(μM) HDAC1
[9] = Table 3, method of Example 11, read-out: IC50(μM) HDAC4
[10] = Table 1, MFLL-9 cells, 18 hours, concentration corresponding to 50% of the maximum active value for TSA

T2 sequence (Q13547 whole entry): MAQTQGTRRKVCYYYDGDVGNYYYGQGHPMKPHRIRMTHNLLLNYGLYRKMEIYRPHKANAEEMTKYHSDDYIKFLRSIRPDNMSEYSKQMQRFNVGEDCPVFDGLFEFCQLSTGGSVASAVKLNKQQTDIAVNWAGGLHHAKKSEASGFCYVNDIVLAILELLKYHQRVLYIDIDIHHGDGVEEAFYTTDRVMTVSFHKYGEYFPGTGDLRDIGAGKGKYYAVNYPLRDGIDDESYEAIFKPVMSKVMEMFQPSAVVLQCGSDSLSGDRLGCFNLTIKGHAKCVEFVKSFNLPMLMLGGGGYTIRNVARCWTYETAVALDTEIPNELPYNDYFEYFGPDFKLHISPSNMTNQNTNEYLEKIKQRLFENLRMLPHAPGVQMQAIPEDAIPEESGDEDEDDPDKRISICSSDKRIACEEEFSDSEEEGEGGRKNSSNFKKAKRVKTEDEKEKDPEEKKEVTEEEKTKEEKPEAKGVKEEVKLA
T3 sequence (P56524 whole entry): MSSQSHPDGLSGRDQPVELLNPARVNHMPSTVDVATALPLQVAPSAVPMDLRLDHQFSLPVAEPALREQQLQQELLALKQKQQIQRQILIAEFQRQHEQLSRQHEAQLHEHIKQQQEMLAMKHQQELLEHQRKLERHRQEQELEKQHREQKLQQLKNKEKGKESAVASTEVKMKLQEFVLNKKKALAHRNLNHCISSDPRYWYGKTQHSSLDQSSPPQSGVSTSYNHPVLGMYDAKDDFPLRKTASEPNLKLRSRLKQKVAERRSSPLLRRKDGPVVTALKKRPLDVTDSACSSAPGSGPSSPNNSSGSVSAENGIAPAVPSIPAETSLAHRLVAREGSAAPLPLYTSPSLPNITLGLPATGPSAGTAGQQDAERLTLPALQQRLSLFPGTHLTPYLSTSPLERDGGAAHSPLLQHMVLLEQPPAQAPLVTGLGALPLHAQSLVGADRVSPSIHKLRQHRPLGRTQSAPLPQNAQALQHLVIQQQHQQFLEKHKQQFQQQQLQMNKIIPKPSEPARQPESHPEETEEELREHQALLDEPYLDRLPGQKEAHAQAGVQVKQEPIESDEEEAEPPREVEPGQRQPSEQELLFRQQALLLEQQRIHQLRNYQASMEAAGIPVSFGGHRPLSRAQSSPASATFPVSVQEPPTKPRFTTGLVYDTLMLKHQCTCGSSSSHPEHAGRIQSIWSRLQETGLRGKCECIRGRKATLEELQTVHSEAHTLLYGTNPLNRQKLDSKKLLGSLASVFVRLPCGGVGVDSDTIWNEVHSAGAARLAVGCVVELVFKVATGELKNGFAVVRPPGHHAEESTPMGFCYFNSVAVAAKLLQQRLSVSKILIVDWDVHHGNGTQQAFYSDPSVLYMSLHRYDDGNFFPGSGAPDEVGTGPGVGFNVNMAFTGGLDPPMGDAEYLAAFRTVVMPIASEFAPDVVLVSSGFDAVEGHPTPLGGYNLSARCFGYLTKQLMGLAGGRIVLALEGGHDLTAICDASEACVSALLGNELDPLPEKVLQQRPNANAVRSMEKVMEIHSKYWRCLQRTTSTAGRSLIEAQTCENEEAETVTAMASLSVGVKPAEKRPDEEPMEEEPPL

Molecule: CC[C@H](C)[C@@H]1NC(=O)[C@@H](Cc2ccc(OC)cc2)NC(=O)[C@H](CCCCN(C=O)OCc2ccccc2)NC(=O)[C@@H]2CCCCN2C1=O [cyclo(-L-Lys(For, OBzl)-D-Tyr(Me)-L-Ile-L-Pip-)]
ring closure, isolated yield [1]: 24%

Molecule: CC[C@H](C)[C@@H]1NC(=O)[C@@H](Cc2ccc(OC)cc2)NC(=O)[C@H](CCCCCC(=O)Nc2ccccc2S)NC(=O)[C@H]2CCCN2C1=O [OATP, cyclo(L-Asu(OATP)-D-Tyr(Me)-L-Ile-D-Pro)] (cyclo([Asu](X3)[dY](Me)I[dP]))
pEC50 [2, 6]: < 4.00
pIC50 (mouse HDAC6): 3.39
pIC50 (human HDAC1): 5.69
pIC50 (human HDAC4): 6.64

Molecule: CC[C@H](C)[C@@H]1NC(=O)[C@@H](Cc2ccc(OC)cc2)NC(=O)[C@H](CCCCCC(=O)Nc2ccccc2N)NC(=O)[C@H]2CCCN2C1=O [OPD, cyclo(L-Asu(OPD)-D-Tyr(Me)-L-Ile-D-Pro)] (cyclo([Asu](NH(2-NH2-phenyl))[dY](Me)I[dP]))
pEC50 [2, 6]: 4.51
IC50 (mouse HDAC6; [7]): 321 µM
IC50 (human HDAC1; [8]): 4.04 µM
IC50 (human HDAC4; [9]): 15.7 µM

Molecule: CC[C@H](C)[C@@H]1NC(=O)[C@@H](Cc2ccc(OC)cc2)NC(=O)[C@H](CCCCS(=O)(=O)CC(=O)C(F)(F)F)NC(=O)[C@H]2CCCN2C1=O [Stfk]
pEC50 [2, 10]: < 4.00

Molecule: Cyclo(-L-Asu(OBzl)-D-Tyr(Me)-L-Ile-D-Pro-) [COOBzI]
pEC50 [2, 10]: < 4.00

Molecule: CC[C@H](C)[C@@H]1NC(=O)[C@@H](Cc2ccc(OC)cc2)NC(=O)[C@H](CCCCCN(O)C=O)NC(=O)[C@@H]2CCCN2C1=O [N(OH)COH Cyclo(X-y(Me)-I-P), n = 5] (cyclo([hLys(Nζ-OH,Nζ-For)][dY](Me)IP))
IC50 (mouse HDAC6; [3]): 0.029 µM
IC50 (human HDAC4; [5]): 0.09 µM

Molecule: CC[C@H](C)[C@@H]1NC(=O)[C@@H](Cc2ccc(OC)cc2)NC(=O)[C@H](CCCCCC(=O)Oc2ccccc2N)NC(=O)[C@H]2CCCN2C1=O [OAPNH, cyclo(L-Asu(OAPNH)-D-Tyr(Me)-L-Ile-D-Pro)] (cyclo([Asu](X2)[dY](Me)I[dP]))
pEC50 [2, 6]: 4.89
IC50 (mouse HDAC6; [7]): 441 µM
IC50 (human HDAC1; [8]): 0.4 µM
IC50 (human HDAC4; [9]): 0.24 µM

Molecule: CC[C@H](C)[C@@H]1NC(=O)[C@@H](Cc2ccc(OC)cc2)NC(=O)[C@H](CCCCCSC)NC(=O)[C@H]2CCCN2C1=O [SMe]
pEC50 [2, 10]: < 4.00

Continued, values first:

IC50 (mouse HDAC6; [3]): 11.2 µM
IC50 (human HDAC1; [4]): 13.5 µM
IC50 (human HDAC4; [5]): 18.9 µM
Molecule: CC[C@H](C)[C@@H]1NC(=O)[C@@H](Cc2ccc(OC)cc2)NC(=O)[C@H](CCCCCCN(O)C=O)NC(=O)[C@@H]2CCCCN2C1=O [N(OH)COH Cyclo(X-y(Me)-I-Pip), n = 6]

IC50 (mouse HDAC6; [3]): 14.3 µM
IC50 (human HDAC1; [4]): 33.9 µM
IC50 (human HDAC4; [5]): 25.2 µM
Molecule: CC[C@H](C)[C@@H]1NC(=O)[C@@H](Cc2ccc(OC)cc2)NC(=O)[C@H](CCCCN(O)C=O)NC(=O)[C@H]2CCCCN2C1=O [N(OH)COH Cyclo(X-y(Me)-I-pip), n = 4]

pEC50 [2, 10]: 5.43
pIC50 (mouse HDAC6): 6.74
pIC50 (human HDAC1): 7.17
pIC50 (human HDAC4): 6.89
Molecule: CC[C@H](C)[C@@H]1NC(=O)[C@@H](Cc2ccc(OC)cc2)NC(=O)[C@H](CCCCCN(O)C=O)NC(=O)[C@H]2CCCCN2C1=O [N(OH)COH Cyclo(X-y(Me)-I-pip), n = 5, cyclo(-L-Hly(For, OH)-D-Tyr(Me)-L-Ile-D-Pip-)] (cyclo(I[dPip][hLys(Nζ-OH,Nζ-For)][dY](Me)))

IC50 (mouse HDAC6; [3]): 8.19 µM
IC50 (human HDAC1; [4]): 23.9 µM
IC50 (human HDAC4; [5]): 17.5 µM
Molecule: CC[C@H](C)[C@@H]1NC(=O)[C@@H](Cc2ccc(OC)cc2)NC(=O)[C@H](CCCCN(O)C=O)NC(=O)[C@@H]2CCCCN2C1=O [N(OH)COH Cyclo(X-y(Me)-I-Pip), n = 4]
